Assay results from patent US20250026745A1 (Bluejay Therapeutics, Inc., priority 2023, published 2025).
Like-named read-outs stand apart in the source and are kept apart here.

What was measured:
[1] = target: HEK293 cells expressing 17β-HSD13 (Homo sapiens (Human), UniProt Q7Z5P4); assay: 17β-HSD13 cell-based assay (β-estradiol conversion, LC-MS/MS)
Procedure: HEK293 cells expressing 17β-HSD13 either stably or transiently were incubated with compounds for 60 min at 37° C. in a humidified incubator. After this first incubation step, β-estradiol was added to each well of the microtiter plate and incubated for 3 h at 37° C. in the humidified incubator. After treatment with β-Estradiol, 50 μL of supernatant was transferred to a 96-V plate containing 100 μL acetonitrile and centrifuged at 3900 rpm for 45 min. Finally, 50 μL of supernatant were taken for LC-MS/MS analysis. The chromatography part was run on a Xbridge 30 mm×2.1 mm column (Waters), at 40 degrees Celsius and a flow rate of 0.8 mL/min for 5 min, while the MS was done on a Q Exactive Orbitrap (Fisher Scientific) in Target SIM mode and negative polarity with a spray voltage of 3.5 kV. EC50 values were determined with GraphPad Prism®, where log-transformed concentration values and the inhibition data were fitted to a four-parameter logistic equation. Y=Bottom+(Top−Bottom)/(1+10^((Log EC50−X)*Hill Slope)). The original, % control, or % inhibition data are represented by Y along with their minimal (Bottom) and maximal (Top) values. The inhibitor concentration is represented by X, EC50 is the concentration at 50% maximal value, and Hill Slope is the slope factor.

[2] = target: recombinant 17β-HSD13 protein (Homo sapiens (Human), UniProt Q7Z5P4); assay: 17β-HSD13 biochemical assay (NAD+/NADH Glo chemiluminescence); conditions: 17β-HSD13 50 nM, NAD+ 10 mM, β-estradiol 20 μM, 2 hours room temperature
Procedure: 17β-HSD13 biochemical assays are generically described in patents WO 2022/020730, WO 2021/003295, and WO 2023/023310. More specifically, recombinant 17β-HSD13 protein was assayed in a buffer containing 200 mM Tris pH 7.5, 0.01% Triton X-100, and 0.02% BSA into a 384-well assay plate. Compounds were incubated with 17β-HSD13 (final 50 nM) and NAD+ (final 10 mM) at room temperature for 1 h prior to substrate addition. The assay reaction was then initiated by addition of β-estradiol (final 20 μM), and the reaction mixture was incubated for 2 hours at room temperature. Product formation was detected with chemiluminescence by adding equal volume of NAD+/NADH Glo reagent (Promega, #G9062) and read on a PHERAstar microplate reader (BMG LABTECH). IC50 values were determined with GraphPad Prism®, where log-transformed concentration values and the inhibition data were fitted to a four-parameter logistic equation. Y=Bottom+(Top−Bottom)/(1+10^((Log IC50−X)*HillSlope)). The original, % control, or % inhibition data are represented by Y along with their minimal (Bottom) and maximal (Top) values. The inhibitor concentration is represented by X, IC50 is the concentration at 50% maximal value, and Hill Slope is the slope factor.

[3] = HEK293 cells stably expressing 17β-HSD13 (footnote b), read-out: EC50, nM Stable
[4] = HEK293 cells transiently expressing 17β-HSD13 (footnote a), read-out: EC50, nM Transient

Chain of HEK293 cells expressing 17β-HSD13 (Q7Z5P4 20-300): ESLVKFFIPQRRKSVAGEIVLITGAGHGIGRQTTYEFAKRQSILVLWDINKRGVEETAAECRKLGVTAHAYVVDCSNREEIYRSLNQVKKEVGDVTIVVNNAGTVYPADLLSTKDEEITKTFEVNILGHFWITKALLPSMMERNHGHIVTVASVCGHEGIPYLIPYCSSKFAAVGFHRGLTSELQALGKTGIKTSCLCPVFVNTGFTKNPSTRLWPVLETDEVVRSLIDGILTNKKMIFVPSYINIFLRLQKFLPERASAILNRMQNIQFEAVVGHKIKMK
Chain of recombinant 17β-HSD13 protein (Q7Z5P4 20-300): as above

EC50 [1, 3] [nM] | IC50 [2] [nM] | EC50 [1, 4] [nM] | Compound
35 |  |  | O=C1N(CC(F)(F)F)C(=O)C2(CC2)N1Cc1nnc(-c2cc(F)c(F)c(O)c2F)s1 [Compound I-68, 4-((5-(2,4,5-trifluoro-3-hydroxyphenyl)-1,3,4-thiadiazol-2-yl)methyl)-6-(2,2,2-trifluoroethyl)-4,6-diazaspiro[2.4]heptane-5,7-dione]
10.4 | 2 ± 0.588 |  | C[C@@H](c1ccccc1)N1C(=O)N(Cc2nnc(-c3ccc(F)c(O)c3F)s2)C2(CC2)C1=O [Compound I-83, (S)-4-((5-(2,4-difluoro-3-hydroxyphenyl)-1,3,4-thiadiazol-2-yl)methyl)-6-(1-phenylethyl)-4,6-diazaspiro[2.4]heptane-5,7-dione]
19.2 |  |  | O=C1N(Cc2ccccc2)C(=O)C2(CC2)N1Cc1nnc(-c2cc(C(F)F)c(F)c(O)c2F)s1 [Compound I-65, 6-benzyl-4-((5-(5-(difluoromethyl)-2,4-difluoro-3-hydroxyphenyl)-1,3,4-thiadiazol-2-yl)methyl)-4,6-diazaspiro[2.4]heptane-5,7-dione]
10.7 | 1.53 |  | O=C1N(C(c2ccc(F)cc2F)C(F)(F)F)C(=O)C2(CC2)N1Cc1nnc(-c2ccc(F)c(O)c2Cl)s1 (stereo not drawn) [Compound I-54, 4-[[5-(2-chloro-4-fluoro-3-hydroxy-phenyl)-1,3,4-thiadiazol-2-yl]methyl]-6-[1-(2,4-difluorophenyl)-2,2,2-trifluoro-ethyl]-4,6-diazaspiro[2.4]heptane-5,7-dione]
107 | 18.7 ± 2.67 |  | O=C1N(CC2(C(F)(F)F)CC2)C(=O)C2(CC2)N1Cc1nnc(-c2ccc(F)c(O)c2Cl)s1 [Compound I-26, 4-((5-(2-chloro-4-fluoro-3-hydroxyphenyl)-1,3,4-thiadiazol-2-yl)methyl)-6-((1-(trifluoromethyl)cyclopropyl)methyl)-4,6-diazaspiro[2.4]heptane-5,7-dione]
 | 22.1 ± 2.18 | 165 | O=C1N(CC23CC(C2)C3)C(=O)C2(CC2)N1Cc1nnc(-c2ccc(F)c(O)c2F)s1 [Compound I-6, 6-(bicyclo[1.1.1]pentan-1-ylmethyl)-4-((5-(2,4-difluoro-3-hydroxyphenyl)-1,3,4-thiadiazol-2-yl)methyl)-4,6-diazaspiro[2.4]heptane-5,7-dione]
66.4 | 9.8 |  | O=C1N(CC(F)(F)F)C(=O)C2(CC2)N1Cc1nnc(-c2cc(C(F)(F)F)cc(O)c2Cl)s1 [Compound I-40, 4-((5-(2-chloro-3-hydroxy-5-(trifluoromethyl)phenyl)-1,3,4-thiadiazol-2-yl)methyl)-6-(2,2,2-trifluoroethyl)-4,6-diazaspiro[2.4]heptane-5,7-dione]
 | 8.99 ± 0.322 | 42.2 | CC(C)N1C(=O)N(Cc2nnc(-c3ccc(F)c(O)c3F)s2)C2(CC2)C1=O [Compound I-5, 4-((5-(2,4-difluoro-3-hydroxyphenyl)-1,3,4-thiadiazol-2-yl)methyl)-6-isopropyl-4,6-diazaspiro[2.4]heptane-5,7-dione]
35.1 ± 6.03 | 4.6 |  | CC(C)(C)N1C(=O)N(Cc2nnc(-c3ccc(F)c(O)c3Cl)s2)C2(CC2)C1=O [Compound I-50, 6-(tert-butyl)-4-((5-(2-chloro-4-fluoro-3-hydroxyphenyl)-1,3,4-thiadiazol-2-yl)methyl)-4,6-diazaspiro[2.4]heptane-5,7-dione]
18.9 | 4.15 |  | 6-cyclopropyl-4-[[5-(2,4-difluoro-3-hydroxy-phenyl)-1,3,4-thiadiazol-2-yl]methyl]-4,6-diazaspiro[2.4]heptane-5,7-dione [Compound I-41]
8.42 | 1.76 ± 0.26 |  | C[C@H](c1ccccc1)N1C(=O)N(Cc2nnc(-c3ccc(F)c(O)c3F)s2)C2(CC2)C1=O [Compound I-82, (R)-4-((5-(2,4-difluoro-3-hydroxyphenyl)-1,3,4-thiadiazol-2-yl)methyl)-6-(1-phenylethyl)-4,6-diazaspiro[2.4]heptane-5,7-dione]
40.9 ± 25 | 8.07 ± 1.77 |  | O=C1N(CC(F)(F)F)C(=O)C2(CC2)N1Cc1nnc(-c2ccc(F)c(O)c2F)s1 [Compound I-15, 4-((5-(2,4-difluoro-3-hydroxyphenyl)-1,3,4-thiadiazol-2-yl)methyl)-6-(2,2,2-trifluoroethyl)-4,6-diazaspiro[2.4]heptane-5,7-dione]
52.7 | 2.46 |  | O=C1N(Cc2ccccc2)C(=O)C2(CC2)N1Cc1nnc(-c2cc(C(F)(F)F)c(F)c(O)c2F)s1 [Compound I-57, 6-benzyl-4-((5-(2,4-difluoro-3-hydroxy-5-(trifluoromethyl)phenyl)-1,3,4-thiadiazol-2-yl)methyl)-4,6-diazaspiro[2.4]heptane-5,7-dione]
144 | 41 ± 3.9 |  | CCN1C(=O)N(Cc2nnc(-c3cc(O)cc(C(F)(F)F)c3)s2)C2(CC2)C1=O [Compound I-22, 6-ethyl-4-((5-(3-hydroxy-5-(trifluoromethyl)phenyl)-1,3,4-thiadiazol-2-yl)methyl)-4,6-diazaspiro[2.4]heptane-5,7-dione]
29.2 | 2.14 |  | O=C1N(Cc2ccccc2)C(=O)C2(CC2)N1Cc1nnc(-c2cc(C(F)(F)F)cc(O)c2F)s1 [Compound I-55, 6-benzyl-4-((5-(2-fluoro-3-hydroxy-5-(trifluoromethyl)phenyl)-1,3,4-thiadiazol-2-yl)methyl)-4,6-diazaspiro[2.4]heptane-5,7-dione]
121 | 3.11 |  | O=C1N([C@@H](c2ccc(-c3ccc(F)cc3)cc2F)C(F)(F)F)C(=O)C2(CC2)N1Cc1nnc(-c2ccc(F)c(O)n2)s1 [Compound I-96, (S)-6-(1-(3,4′-difluoro-[1,1′-biphenyl]-4-yl)-2,2,2-trifluoroethyl)-4-((5-(5-fluoro-6-hydroxypyridin-2-yl)-1,3,4-thiadiazol-2-yl)methyl)-4,6-diazaspiro[2.4]heptane-5,7-dione]
125 | 9.6 |  | CCN1C(=O)N(Cc2nnc(-c3cc(C(F)(F)F)cc(O)c3F)s2)C2(CC2)C1=O [Compound I-14, 6-ethyl-4-[[5-[2-fluoro-3-hydroxy-5-(trifluoromethyl)phenyl]-1,3,4-thiadiazol-2-yl]methyl]-4,6-diazaspiro[2.4]heptane-5,7-dione]
35.9 | 7.08 |  | O=C1N(C2CCC2)C(=O)C2(CC2)N1Cc1nnc(-c2ccc(F)c(O)c2F)s1 [Compound I-30, 6-cyclobutyl-4-((5-(2,4-difluoro-3-hydroxyphenyl)-1,3,4-thiadiazol-2-yl)methyl)-4,6-diazaspiro[2.4]heptane-5,7-dione]
21.5 |  |  | O=C1N(Cc2ccccc2)C(=O)C2(CC2)N1Cc1nnc(-c2cc(F)c(F)c(O)c2F)s1 [Compound I-69, 6-benzyl-4-((5-(2,4,5-trifluoro-3-hydroxyphenyl)-1,3,4-thiadiazol-2-yl)methyl)-4,6-diazaspiro[2.4]heptane-5,7-dione]
 | 7.38 |  | COc1ccc(CN2C(=O)N(Cc3nnc(-c4ccc(F)c(O)c4Cl)s3)C3(CC3)C2=O)c(F)c1 [Compound I-44, 4-((5-(2-chloro-4-fluoro-3-hydroxyphenyl)-1,3,4-thiadiazol-2-yl)methyl)-6-(2-fluoro-4-methoxybenzyl)-4,6-diazaspiro[2.4]heptane-5,7-dione]
 | 146 |  | O=C1N(CC2(C(F)(F)F)CC2)C(=O)C2(CC2)N1Cc1nnc(-c2ccc(Cl)c(O)c2F)s1 [Compound I-25, 4-((5-(4-chloro-2-fluoro-3-hydroxyphenyl)-1,3,4-thiadiazol-2-yl)methyl)-6-((1-(trifluoromethyl)cyclopropyl)methyl)-4,6-diazaspiro[2.4]heptane-5,7-dione]
 | 18 |  | O=C1N(Cc2ccccc2)C(=O)C2(CC2)N1Cc1nnc(-c2cc(C3CC3)c(F)c(O)c2F)s1 [Compound I-63, 6-benzyl-4-((5-(5-cyclopropyl-2,4-difluoro-3-hydroxyphenyl)-1,3,4-thiadiazol-2-yl)methyl)-4,6-diazaspiro[2.4]heptane-5,7-dione]
 | 934 |  | CC[C@H](C)N1C(=O)N(Cc2nnc(-c3ccc(F)c(O)n3)s2)C2(CC2)C1=O [Compound I-78, (S)-6-(sec-butyl)-4-((5-(5-fluoro-6-hydroxypyridin-2-yl)-1,3,4-thiadiazol-2-yl)methyl)-4,6-diazaspiro[2.4]heptane-5,7-dione]
